For three molecules, IC50 results are on record in patent US20240209011A1, “HETEROAROMATIC PHOSPHONIUM SALTS FOR TREATING CANCER” (FLORATEK PHARMA S.A., priority 2021, published 2024).

Molecules are shown by their SMILES.

What is called IC50 is the point on the concentration scale where inhibition reaches its midpoint.

Format in all cases: cell-based
Experiment [1] concerns ZR-75-1. The experiment is described as follows: Cell viability assay (CellTiter-Blue/CellTiter-Glow). The settings on record: Homo sapiens; breast carcinoma cell line ZR-75-1; absolute IC50; 72 h. Summed up: (§1)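 Tumour cells were plated at 4,000-20,000 cells/well (up to 60,000 for haematological lines) in RPMI 1640 or DMEM with 10% FCS, then exposed 24 h later to compounds for 72 h at 37 °C. Viability was read by CellTiter-Blue fluorescence or CellTiter-Glo luminescence; absolute IC50 taken at T/C=50%.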
(In general: The colour change of resazurin is a common sign of viable cells or microbes.)

Experiment [2] deals with BT-474. Described as above. Conditions: Homo sapiens; breast carcinoma cell line BT-474; absolute IC50; 72 h. Summed up:
as §1

Experiment [3] concerns CHP-134. Described as above. Conditions: Homo sapiens; brain carcinoma cell line CHP-134; absolute IC50; 72 h. Summed up: as §1
The test system of experiment [4] is MDA-MB-231. The experiment is described as above. The settings on record: Homo sapiens; breast carcinoma cell line MDA-MB-231; absolute IC50; 72 h. Put shortly: as §1
Experiment [5] deals with SK-N-AS. The description is as above. Conditions: Homo sapiens; brain carcinoma cell line SK-N-AS; absolute IC50; 72 h. Summed up: as §1
Experiment [6] relates to U-251. Described as above. The settings on record: Homo sapiens; brain carcinoma cell line U-251; absolute IC50; 72 h. Summed up:
as §1

Experiment [7] has as its system MDA-MB-436. The experiment is described as above. Conditions: Homo sapiens; breast carcinoma cell line MDA-MB-436; absolute IC50; 72 h. Summed up: as §1
In experiment [8] the test system is SH-SY-5Y. The description is as above. Conditions: Homo sapiens, SH-SY5Y; brain carcinoma cell line SH-SY-5Y; absolute IC50; 72 h. Put shortly:
as §1

The subject of experiment [9] is HCC1806. The experiment is described as above. The settings on record: Homo sapiens; breast carcinoma cell line HCC1806; absolute IC50; 72 h. Put shortly:
as §1

The test system of experiment [10] is T47D. The experiment is described as above. The settings on record: Homo sapiens; breast carcinoma cell line T47D; absolute IC50; 72 h. Summed up:
as §1

Experiment [11] has as its system U-118. The description is as above. The settings on record: brain carcinoma cell line U-118; absolute IC50; 72 h. Summed up: as §1
Experiment [12] concerns Panc-1. The description is as above. The settings on record: Homo sapiens; pancreatic carcinoma cell line Panc-1; absolute IC50; 72 h. Summed up: as §1
Experiment [13] relates to parental H69 cells. The description is as above. Conditions: Homo sapiens, NCI-H69; SCLC parental H69 cells. Put shortly: as §1
Experiment [14] has as its system brain carcinoma PDX GBM14-CHA. Kind of experiment: PDX-derived cell culture cytotoxicity (CellTiter-Glo). Conditions: 120 h; PDX brain carcinoma GBM14-CHA (FIG. 3); 5 days. On the procedure: (§2) PDX-derived cell cultures were obtained from tumors explanted from mice and isolated by mechanical and enzymatic dissociation. […] Cells were harvested and seeded in 96-wells plates at a density of 1.25 to 5×10^3 cells/well for cytotoxicity assays. Cells were incubated 48 h at 37° C. prior to addition of test molecules and vehicle (DMSO, 0.1%) at desired final concentrations. Cell viability was assessed before drugs' addition (To) and 5 days after test molecules addition by measuring ATP cell content using CellTiter-Glo® Luminescent Cell Viability Assay (Promega) according to the manufacturer's instructions. Luciferase activity was measured on a luminometer (PerkinElmer® EnVision™). Each concentration of compounds was tested in triplicate.
(§3) Viability was calculated as a percentage of ATP value compared to vehicle treated controls.
(§4) For PDX primary cell cultures, the tumour tissue was washed with PBS containing antibiotic-antimycotic and non-tumour tissue and necrotic tumour tissues were separated. The tumour tissue was transferred to a new dish and cut into 1-2 mm^3 fragments, resuspended in RPMI-1640 medium and centrifuged at 1,200 rpm for 6 min at room temperature. The pelleted material was resuspended with 15 mL of Tumour Cell Digestion Solution and incubated at 37° C. for 1 hour with agitation. Following further addition of media, centrifugation and passage through a […] cell strainer, the homogenous cell mixture was layered onto 15 mL of Ficoll-Paque PLUS in a 50 mL conical tube and centrifuged for 15 min at 1,600 rpm. The interface cells were collected, washed with media, separated by centrifugation at 1,200 rpm. The cell pellet was resuspended in serum free media supplemented with growth factors. 10,000 cells/wells were plated in a 96 well plate and incubated at 37° C., 5% CO2, 95% air and 100% relative humidity overnight. The cytotoxicity assay was conducted as above. IC50 values represent absolute IC50.
For orientation: ATP-based viability assays read luminescence as a measure of living cells.

The subject of experiment [15] is small cell lung carcinoma PDX SC6. The description is as above. Conditions: 120 h; small cell lung carcinoma PDX SC6 (FIG. 13); 5 days. The method, then: as §2, §3, §4

Turning to `O=c1cc(-c2ccc(CCCC[P+](c3ccccc3)(c3ccccc3)c3ccccc3)cc2)oc2c3c(ccc12)OCO3.[Br-]` [SND123, 4-[4-(6-oxo-[1,3]dioxolo[4,5-h]chromen-8-yl)phenyl]butyl-triphenylphosphonium bromide], the 50% inhibitory concentration (IC50) in [1] came to 2.5 µM; in experiment [2], 1.6 µM; in [3], 1.8 µM; in experiment [4] it was 2 µM; in [5] it was 3.5 µM; in [6], 1.87 µM. In addition, the IC50 was 2.3 µM in experiment [7]; 4.9 µM in experiment [8]; 2.3 µM in [9]; 1.7 µM in experiment [10]; 8.3 µM in experiment [11]; 2.32 µM in experiment [12].
In the case of `CCNC(=O)Oc1ccc2c(=O)cc(-c3ccc(CCCC[P+](c4ccccc4)(c4ccccc4)c4ccccc4)cc3)oc2c1O.[Br-]` [SND126A, 4-[4-[7-(Ethylcarbamoyloxy)-8-hydroxy-4-oxo-chromen-2-yl]phenyl]butyltriphenylphosphonium bromide], the IC50 in [13] turned out to be 3.63 µM.
Regarding `COc1c(O)ccc2c(=O)cc(-c3ccc(CCCC[P+](c4ccccc4)(c4ccccc4)c4ccccc4)cc3)oc12.[Br-]` [SND140, (4-(4-(7-hydroxy-8-methoxy-4-oxo-4H-chromen-2-yl)phenyl)butyl)triphenylphosphonium bromide], the figures for the 50% inhibitory concentration (IC50) in experiment [14] and in experiment [15] were 6.47 µM and 7.02 µM, respectively.
